Experimental data from patent US20090137664A1, “SAURURUS CERNUUS COMPOUNDS THAT INHIBIT CELLULAR RESPONSES TO HYPOXIA” (priority 2003, published 2009).

Assays:
Assay type in all cases: cell-based
SR = experiment: NCI in vitro cell line screen (SRB), Leukemia SR
Procedure: (§1) For exemplary purposes, an embodiment of the present invention was tested for activity with respect to certain cancer cell lines. The following Tables show results from in vitro 60-cell line antitumor testing from the US National Cancer Institute Developmental Therapeutics Program (NCI-DTP) on compound 2. The testing was in connection with the NCI's In Vitro Cell Line Screening Project (IVCLSP). Detailed information regarding the experiments and their interpretation is available from the NCI.

786-0 = experiment: NCI in vitro cell line screen (SRB), Renal Cancer 786-0
Procedure: as §1

U251 = experiment: NCI in vitro cell line screen (SRB), CNS Cancer U251
Procedure: as §1

HL-60(TB) = experiment: NCI in vitro cell line screen (SRB), Leukemia HL-60(TB)
Procedure: as §1

HCT-15 = experiment: NCI in vitro cell line screen (SRB), Colon Cancer HCT-15
Procedure: as §1

OVCAR-3 = experiment: NCI in vitro cell line screen (SRB), Ovarian Cancer OVCAR-3
Procedure: as §1

[1] = Homo sapiens, read-out: LC50 (the source's name)

COc1ccc([C@@H](O)[C@@H](C)Oc2ccc([C@H]3O[C@H](c4ccc(O[C@H](C)[C@H](O)c5ccc6c(c5)OCO6)c(OC)c4)[C@H](C)[C@H]3C)cc2OC)cc1OC [Compound 2, manassantin B]
TGI (SR): >1.00E−4 Molar
CC50 (SR; [1]): > 100 µM
Mean Optical Densities (SR; Log10 Concentration −4.0 Molar): 0.429
Percent Growth (SR; Log10 Concentration −4.0 Molar): 22%
Mean Optical Densities (SR; Log10 Concentration −5.0 Molar): 0.561
Percent Growth (SR; Log10 Concentration −5.0 Molar): 39%
Mean Optical Densities (SR; Log10 Concentration −6.0 Molar): 0.685
Percent Growth (SR; Log10 Concentration −6.0 Molar): 54%
Mean Optical Densities (SR; Log10 Concentration −7.0 Molar): 0.637
Percent Growth (SR; Log10 Concentration −7.0 Molar): 48%
Mean Optical Densities (SR; Log10 Concentration −8.0 Molar): 0.616
Percent Growth (SR; Log10 Concentration −8.0 Molar): 46%
TGI (786-0): >1.00E−4 Molar
GI50 (786-0; Homo sapiens): 7.74 µM
CC50 (786-0; [1]): > 100 µM
Mean Optical Densities (786-0; Log10 Concentration −4.0 Molar): 0.806
Percent Growth (786-0; Log10 Concentration −4.0 Molar): 38%
Mean Optical Densities (786-0; Log10 Concentration −5.0 Molar): 0.888
Percent Growth (786-0; Log10 Concentration −5.0 Molar): 46%
Mean Optical Densities (786-0; Log10 Concentration −6.0 Molar): 1.309
Percent Growth (786-0; Log10 Concentration −6.0 Molar): 84%
Mean Optical Densities (786-0; Log10 Concentration −7.0 Molar): 1.361
Percent Growth (786-0; Log10 Concentration −7.0 Molar): 89%
Mean Optical Densities (786-0; Log10 Concentration −8.0 Molar): 1.398
Percent Growth (786-0; Log10 Concentration −8.0 Molar): 92%
TGI (U251): 7.27E−5 Molar
GI50 (U251; Homo sapiens, U-251): < 0.01 µM
CC50 (U251; Homo sapiens, U-251, read-out: LC50 (the source's name)): > 100 µM
Mean Optical Densities (U251; Log10 Concentration −4.0 Molar): 0.267
Percent Growth (U251; Log10 Concentration −4.0 Molar): −2%
Mean Optical Densities (U251; Log10 Concentration −5.0 Molar): 0.335
Percent Growth (U251; Log10 Concentration −5.0 Molar): 15%
Mean Optical Densities (U251; Log10 Concentration −6.0 Molar): 0.418
Percent Growth (U251; Log10 Concentration −6.0 Molar): 35%
Mean Optical Densities (U251; Log10 Concentration −7.0 Molar): 0.444
Percent Growth (U251; Log10 Concentration −7.0 Molar): 41%
Mean Optical Densities (U251; Log10 Concentration −8.0 Molar): 0.443
Percent Growth (U251; Log10 Concentration −8.0 Molar): 41%
TGI (HL-60(TB)): >1.00E−4 Molar
GI50 (HL-60(TB); Homo sapiens): > 100 µM
CC50 (HL-60(TB); [1]): > 100 µM
Mean Optical Densities (HL-60(TB); Log10 Concentration −4.0 Molar): 0.426
Percent Growth (HL-60(TB); Log10 Concentration −4.0 Molar): 58%
Mean Optical Densities (HL-60(TB); Log10 Concentration −5.0 Molar): 0.491
Percent Growth (HL-60(TB); Log10 Concentration −5.0 Molar): 76%
Mean Optical Densities (HL-60(TB); Log10 Concentration −6.0 Molar): 0.555
Percent Growth (HL-60(TB); Log10 Concentration −6.0 Molar): 93%
Mean Optical Densities (HL-60(TB); Log10 Concentration −7.0 Molar): 0.543
Percent Growth (HL-60(TB); Log10 Concentration −7.0 Molar): 90%
Mean Optical Densities (HL-60(TB); Log10 Concentration −8.0 Molar): 0.469
Percent Growth (HL-60(TB); Log10 Concentration −8.0 Molar): 70%
TGI (HCT-15): >1.00E−4 Molar
GI50 (HCT-15; Homo sapiens): 4.91 µM
CC50 (HCT-15; [1]): > 100 µM
Mean Optical Densities (HCT-15; Log10 Concentration −4.0 Molar): 0.319
Percent Growth (HCT-15; Log10 Concentration −4.0 Molar): 26%
Mean Optical Densities (HCT-15; Log10 Concentration −5.0 Molar): 0.400
Percent Growth (HCT-15; Log10 Concentration −5.0 Molar): 38%
Mean Optical Densities (HCT-15; Log10 Concentration −6.0 Molar): 0.660
Percent Growth (HCT-15; Log10 Concentration −6.0 Molar): 77%
Mean Optical Densities (HCT-15; Log10 Concentration −7.0 Molar): 0.691
Percent Growth (HCT-15; Log10 Concentration −7.0 Molar): 82%
Mean Optical Densities (HCT-15; Log10 Concentration −8.0 Molar): 0.683
Percent Growth (HCT-15; Log10 Concentration −8.0 Molar): 80%
TGI (OVCAR-3): 4.32E−6 Molar
GI50 (OVCAR-3; Homo sapiens): 0.627 µM
CC50 (OVCAR-3; [1]): > 100 µM
Mean Optical Densities (OVCAR-3; Log10 Concentration −4.0 Molar): 0.367
Percent Growth (OVCAR-3; Log10 Concentration −4.0 Molar): −36%
Mean Optical Densities (OVCAR-3; Log10 Concentration −5.0 Molar): 0.465
Percent Growth (OVCAR-3; Log10 Concentration −5.0 Molar): −19%
